Measured values from ChEMBL document CHEMBL3885861, “Open TG-GATES”.

Species: Rattus norvegicus
Test: Open TG-GATES - Regimen: Single
Type: toxicity, organism-based, Sprague-Dawley
Design: regimen Single, gender Male, age 6 weeks
Conditions: in vivo, po, route gavage; for APTT / Bas / Eos / Fbg / Hb / Ht / Lym / MCH / MCHC / MCV / Mono / Neu / PT / Plat / RBC / Ret / WBC: tissue Blood; for KIDNEY_L / KIDNEY_R / KIDNEY_TOTAL: tissue Kidney; for LIVER: tissue Liver; for A/G / ALP / ALT / AST / BUN / CRE / Ca / Cl / DBIL / GLC / IP / K / LDH / Na / PL / RALB / TBIL / TC / TG / TP / gamma-GTP: tissue Plasma
[1] = 50 mg/kg, 3 h, dose level Middle
[2] = 50 mg/kg, 6 h, dose level Middle
[3] = 50 mg/kg, 9 h, dose level Middle
[4] = 50 mg/kg, 24 h, dose level Middle
[5] = 150 mg/kg, 3 h, dose level High
[6] = 150 mg/kg, 6 h, dose level High
[7] = 150 mg/kg, 9 h, dose level High
[8] = 150 mg/kg, 24 h, dose level High

## CC1=C(CC(=O)O)c2cc(F)ccc2/C1=C\c1ccc([S+](C)[O-])cc1 (centres undefined)
[1]
  TERMINAL_BW: 204.9 g
  APTT: 16.8 s
  Bas: 0%
  Eos: 1%
  Fbg: 266 mg/dL
  Hb: 13.2 g/dL
  Ht: 40.3%
  Lym: 77.6%
  MCH: 21.2 pg
  MCHC: 32.7%
  MCV: 65 fL
  Mono: 2.6%
  Neu: 18.4%
  PT: 14.1 s
  Plat: 130.3 x10_4/uL
  RBC: 620.8 x10_4/ul
  Ret: 8.7%
  WBC: 77.3 x10_2/uL
  KIDNEY_L: 0.9 g
  KIDNEY_R: 0.9 g
  KIDNEY_TOTAL: 1.8 g
  LIVER: 9 g
  A/G: 0.9
  ALP: 1442.8 IU/L
  ALT: 43.4 IU/L
  AST: 76.2 IU/L
  BUN: 11.4 mg/dL
  CRE: 0.2 mg/dL
  Ca: 11 mg/dL
  Cl: 104.8 meq/L
  DBIL: 0.01 mg/dL
  GLC: 166.8 mg/dL
  IP: 8.6 mg/dL
  K: 3.9 meq/L
  LDH: 81.4 IU/L
  Na: 141.6 meq/L
  PL: 140.4 mg/dL
  RALB: 2.5 g/dL
  TBIL: 0.046 mg/dL
  TC: 74.6 mg/dL
  TG: 58.8 mg/dL
  TP: 5.3 g/dL
  gamma-GTP: 1.2 IU/L
[2]
  TERMINAL_BW: 201.8 g
  APTT: 15.7 s
  Bas: 0%
  Eos: 0.8%
  Fbg: 289.4 mg/dL
  Hb: 13.7 g/dL
  Ht: 42.1%
  Lym: 78.4%
  MCH: 21.1 pg
  MCHC: 32.6%
  MCV: 64.6 fL
  Mono: 3%
  Neu: 17.2%
  PT: 13.8 s
  Plat: 113.6 x10_4/uL
  RBC: 652.4 x10_4/ul
  Ret: 7.8%
  WBC: 73.5 x10_2/uL
  KIDNEY_L: 0.9 g
  KIDNEY_R: 0.9 g
  KIDNEY_TOTAL: 1.9 g
  LIVER: 8.4 g
  A/G: 0.9
  ALP: 1437 IU/L
  ALT: 44.4 IU/L
  AST: 69.8 IU/L
  BUN: 10.8 mg/dL
  CRE: 0.2 mg/dL
  Ca: 11 mg/dL
  Cl: 106 meq/L
  DBIL: 0.01 mg/dL
  GLC: 172.4 mg/dL
  IP: 9.4 mg/dL
  K: 4.3 meq/L
  LDH: 69.6 IU/L
  Na: 141 meq/L
  PL: 135.6 mg/dL
  RALB: 2.6 g/dL
  TBIL: 0.044 mg/dL
  TC: 70.8 mg/dL
  TG: 47.8 mg/dL
  TP: 5.3 g/dL
  gamma-GTP: 1 IU/L
[3]
  TERMINAL_BW: 202.2 g
  APTT: 16.8 s
  Bas: 0%
  Eos: 0.8%
  Fbg: 291.6 mg/dL
  Hb: 13.5 g/dL
  Ht: 41.5%
  Lym: 79.4%
  MCH: 20.6 pg
  MCHC: 32.6%
  MCV: 63.2 fL
  Mono: 2.6%
  Neu: 16.8%
  PT: 14 s
  Plat: 117.4 x10_4/uL
  RBC: 656.4 x10_4/ul
  Ret: 7.8%
  WBC: 67.5 x10_2/uL
  KIDNEY_L: 0.9 g
  KIDNEY_R: 0.9 g
  KIDNEY_TOTAL: 1.9 g
  LIVER: 8.2 g
  A/G: 0.9
  ALP: 1341.4 IU/L
  ALT: 42.2 IU/L
  AST: 67.8 IU/L
  BUN: 11.2 mg/dL
  CRE: 0.2 mg/dL
  Ca: 10.8 mg/dL
  Cl: 106.6 meq/L
  DBIL: 0.01 mg/dL
  GLC: 177.6 mg/dL
  IP: 9.9 mg/dL
  K: 4.4 meq/L
  LDH: 65.6 IU/L
  Na: 142 meq/L
  PL: 135 mg/dL
  RALB: 2.6 g/dL
  TBIL: 0.04 mg/dL
  TC: 71.6 mg/dL
  TG: 38 mg/dL
  TP: 5.3 g/dL
  gamma-GTP: 1.2 IU/L
[4]
  TERMINAL_BW: 210.3 g
  APTT: 16.1 s
  Bas: 0%
  Eos: 0.6%
  Fbg: 354.6 mg/dL
  Hb: 13.7 g/dL
  Ht: 42.2%
  Lym: 62%
  MCH: 21 pg
  MCHC: 32.5%
  MCV: 64.8 fL
  Mono: 3.2%
  Neu: 33.8%
  PT: 13.5 s
  Plat: 133.9 x10_4/uL
  RBC: 653.2 x10_4/ul
  Ret: 7.9%
  WBC: 115.7 x10_2/uL
  KIDNEY_L: 0.9 g
  KIDNEY_R: 0.9 g
  KIDNEY_TOTAL: 1.9 g
  LIVER: 9.7 g
  A/G: 1
  ALP: 1280.2 IU/L
  ALT: 43 IU/L
  AST: 67.8 IU/L
  BUN: 14.6 mg/dL
  CRE: 0.2 mg/dL
  Ca: 11 mg/dL
  Cl: 103.4 meq/L
  DBIL: 0.01 mg/dL
  GLC: 189.6 mg/dL
  IP: 7.9 mg/dL
  K: 4 meq/L
  LDH: 86.2 IU/L
  Na: 141 meq/L
  PL: 141.8 mg/dL
  RALB: 2.5 g/dL
  TBIL: 0.024 mg/dL
  TC: 78.4 mg/dL
  TG: 88.4 mg/dL
  TP: 5.2 g/dL
  gamma-GTP: 1 IU/L
[5]
  TERMINAL_BW: 202.5 g
  APTT: 18.7 s
  Bas: 0%
  Eos: 0.8%
  Fbg: 270.6 mg/dL
  Hb: 12.9 g/dL
  Ht: 38.9%
  Lym: 76.4%
  MCH: 21 pg
  MCHC: 33.2%
  MCV: 63.4 fL
  Mono: 3%
  Neu: 18.8%
  PT: 14.3 s
  Plat: 126.3 x10_4/uL
  RBC: 615.4 x10_4/ul
  Ret: 7.8%
  WBC: 82 x10_2/uL
  KIDNEY_L: 0.9 g
  KIDNEY_R: 0.9 g
  KIDNEY_TOTAL: 1.8 g
  LIVER: 8.9 g
  A/G: 1
  ALP: 1334 IU/L
  ALT: 39.2 IU/L
  AST: 71.2 IU/L
  BUN: 10.4 mg/dL
  CRE: 0.2 mg/dL
  Ca: 10.7 mg/dL
  Cl: 103.8 meq/L
  DBIL: 0.006 mg/dL
  GLC: 161.2 mg/dL
  IP: 8.1 mg/dL
  K: 4 meq/L
  LDH: 67.8 IU/L
  Na: 139.8 meq/L
  PL: 144.4 mg/dL
  RALB: 2.5 g/dL
  TBIL: 0.044 mg/dL
  TC: 75.6 mg/dL
  TG: 71.4 mg/dL
  TP: 5.2 g/dL
  gamma-GTP: 1 IU/L
[6]
  TERMINAL_BW: 201.1 g
  APTT: 17.9 s
  Bas: 0%
  Eos: 0.4%
  Fbg: 280 mg/dL
  Hb: 13.3 g/dL
  Ht: 40.9%
  Lym: 65.8%
  MCH: 21 pg
  MCHC: 32.7%
  MCV: 64.4 fL
  Mono: 3.6%
  Neu: 29.2%
  PT: 14 s
  Plat: 133.5 x10_4/uL
  RBC: 635 x10_4/ul
  Ret: 8.1%
  WBC: 68.2 x10_2/uL
  KIDNEY_L: 0.9 g
  KIDNEY_R: 1 g
  KIDNEY_TOTAL: 1.9 g
  LIVER: 8.2 g
  A/G: 1
  ALP: 1506 IU/L
  ALT: 40 IU/L
  AST: 71.4 IU/L
  BUN: 10.4 mg/dL
  CRE: 0.2 mg/dL
  Ca: 10.7 mg/dL
  Cl: 104.8 meq/L
  DBIL: 0.01 mg/dL
  GLC: 168.4 mg/dL
  IP: 9.3 mg/dL
  K: 4.1 meq/L
  LDH: 77.6 IU/L
  Na: 141.2 meq/L
  PL: 135.4 mg/dL
  RALB: 2.6 g/dL
  TBIL: 0.04 mg/dL
  TC: 70.6 mg/dL
  TG: 33 mg/dL
  TP: 5.3 g/dL
  gamma-GTP: 1.4 IU/L
[7]
  TERMINAL_BW: 200.1 g
  APTT: 16.2 s
  Bas: 0%
  Eos: 1%
  Fbg: 294.8 mg/dL
  Hb: 13.3 g/dL
  Ht: 40.5%
  Lym: 67.4%
  MCH: 20.8 pg
  MCHC: 32.8%
  MCV: 63.5 fL
  Mono: 3.2%
  Neu: 28%
  PT: 13.8 s
  Plat: 122 x10_4/uL
  RBC: 638 x10_4/ul
  Ret: 7.8%
  WBC: 50.2 x10_2/uL
  KIDNEY_L: 0.9 g
  KIDNEY_R: 0.9 g
  KIDNEY_TOTAL: 1.8 g
  LIVER: 7.6 g
  A/G: 1
  ALP: 1365 IU/L
  ALT: 37.4 IU/L
  AST: 68.8 IU/L
  BUN: 9.8 mg/dL
  CRE: 0.2 mg/dL
  Ca: 10.4 mg/dL
  Cl: 107 meq/L
  DBIL: 0.014 mg/dL
  GLC: 169.4 mg/dL
  IP: 10.1 mg/dL
  K: 4.2 meq/L
  LDH: 72 IU/L
  Na: 141.4 meq/L
  PL: 127.8 mg/dL
  RALB: 2.6 g/dL
  TBIL: 0.046 mg/dL
  TC: 68.4 mg/dL
  TG: 40 mg/dL
  TP: 5.2 g/dL
  gamma-GTP: 1 IU/L
[8]
  TERMINAL_BW: 203.3 g
  APTT: 15.4 s
  Bas: 0%
  Eos: 0.4%
  Fbg: 378 mg/dL
  Hb: 10.3 g/dL
  Ht: 32%
  Lym: 54.4%
  MCH: 20.7 pg
  MCHC: 32.3%
  MCV: 64 fL
  Mono: 2.4%
  Neu: 42%
  PT: 13 s
  Plat: 78.4 x10_4/uL
  RBC: 500.2 x10_4/ul
  Ret: 8.5%
  WBC: 96.3 x10_2/uL
  KIDNEY_L: 0.9 g
  KIDNEY_R: 0.9 g
  KIDNEY_TOTAL: 1.8 g
  LIVER: 9.1 g
  A/G: 0.9
  ALP: 747.4 IU/L
  ALT: 30.2 IU/L
  AST: 42.6 IU/L
  BUN: 24 mg/dL
  CRE: 0.2 mg/dL
  Ca: 9.3 mg/dL
  Cl: 105.2 meq/L
  DBIL: 0.008 mg/dL
  GLC: 162.4 mg/dL
  IP: 9.8 mg/dL
  K: 5.1 meq/L
  LDH: 58.8 IU/L
  Na: 137.2 meq/L
  PL: 117 mg/dL
  RALB: 1.5 g/dL
  TBIL: 0.024 mg/dL
  TC: 67.4 mg/dL
  TG: 126.6 mg/dL
  TP: 3.2 g/dL
  gamma-GTP: 0.8 IU/L
